Results from patent US20230201158A1, “PHARMACEUTICAL COMPOSITION CAPABLE OF INHIBITING REPLICATION OF CORONAVIRUS” (MAHIDOL UNIVERSITY, priority 2020, published 2023).
Like-named read-outs stand apart in the source and are kept apart here.

What was measured:
SARS-CoV-2 [1] = assay: Antiviral activity test, immunofluorescence high-content imaging, post-infection treatment; assay type: cell-based
[2] = Cytotoxicity test by MTT assay; assay type: cell-based, African green monkey (Cercopithecus aethiops); settings: African green monkey (Cercopithecus aethiops), Vero E6 cells (kidney epithelial cells, ATCC #C1008), read-out: 50% cytotoxic concentration (CC50)
Description: (§1) According to the present disclosure, Vero E6 cells, African green monkey (Cercopithecus aethiops) kidney epithelial cells (ATCC #C1008), were used for the antiviral screening. The cells were grown in Dulbecco's Modified Eagle Medium (DMEM) (Gibco, USA) with 10% fetal bovine serum (FBS) (Gibco, USA). For Vero cells (African green monkey epithelial cells), these cells were cultured in Minimum Essential Medium (MEM) (Gibco, USA) supplemented with 10% FBS and L-glutamine (Gibco, USA). All cultures were grown at 37° C. in 5% CO2 atmosphere and used in the experiments described in the following examples.
(§2) For Cytotoxicity Test by using MTT assay, the Vero E6 cells were cultured in 96-well plates with 10,000 cells per well and kept in an incubator for 24 hours. Then, the cells were incubated with the two active compounds from the B. rotunda extract, Panduratin A and Pinostrobin, in the incubator for 48 hours. When the given time was completed, 100 uL of […] MTT solvent was added and cells were incubated in the incubator for another 3 hours. MTT solvent was removed and 100 uL DMSO was added. Light absorbance was measured at 570 nm by a microplate reader, and 50% cytotoxicity concentration (CC50) was calculated for each replicate.

Vero E6 cells [3] = assay: Cytotoxicity test by MTT assay; assay type: cell-based, African green monkey (Cercopithecus aethiops); settings: 48 h, read-out: 50% cytotoxic concentration (CC50)
Description: as §1, §2

SARS-CoV-2 [4] = assay: Plaque assay of viral output, post-infection treatment; assay type: cell-based; settings: FIG. 6
Description: Furthermore, the viral output of SARS-CoV-2 in the present disclosure was reported as the infectious titers that were determined by plaque assay. In brief, Vero cell monolayer was seeded into 6-well plate 24 hours before the infection. The cells were inoculated with a serial dilution of the virus and incubated for viral adsorption for 1 hour at 37° C. Then, the cells were overlaid with 3 mL/well of overlay medium containing MEM supplemented with 5% FBS and 1% agarose. To allow plaque to develop, the culture was incubated at 37° C. in 5% CO2 for 3 days. After that, plaque phenotypes were visualized by staining with 0.33% Neutral Red solution (Sigma, USA) for 5 hrs. Plaque numbers were counted and calculated as plaque-forming unit (PFU) per milliliter (mL).

SARS-CoV-2 [5] = assay: Anti-SARS-CoV-2 effect at the pre-entry phase, high-content imaging; assay type: cell-based; settings: pre-incubated with virus 1 h, adsorption 2 h on Vero E6, washed, 48 h
SARS-CoV-2 [6] = assay: Plaque assay of viral output, pre-entry phase; assay type: cell-based; settings: 50 μM, FIG. 9
SARS-CoV-2 [7] = assay type: cell-based
Vero E6 cells [8] = settings: read-out: CC50, pre-entry phase, pre-entry condition

Structure (SMILES)	IC50 (SARS-CoV-2 [1]; Severe acute respiratory syndrome coronavirus 2, Vero C1008, read-out: 50% inhibition concentration (IC50), given in ug/mL beside the uM value) [µg/mL]	CC50 at 48 h [2] [µM]	IC50 (SARS-CoV-2 [1]; Vero E6 cells infected 2 h, then treated 48 h (post-infection), read-out: 50% inhibition concentration (IC50)) [nM]	CC50 (Vero E6 cells [3]) [µM]	Inhibition of coronavirus replication in plaque assay (result in words) (SARS-CoV-2 [4])	IC50 (SARS-CoV-2 [5]) [µM]	Suppression of the infectious virion production (SARS-CoV-2 [6])	Virus titer (reduced in) (SARS-CoV-2 [7]; 72 h, 5 μM, vehicle 4.5 log PFU/mL) [log PFU/mL]	Reduction of virus titers (result in words) (SARS-CoV-2 [7]; primary human alveolar cells, FIG. 10)	CC50 (Vero E6 cells [8]) [µM]	IC50 (SARS-CoV-2 [1]; Severe acute respiratory syndrome coronavirus 2, Vero C1008, read-out: 50% inhibition concentration (IC50)) [nM]	Virus titer (reduced in) (SARS-CoV-2 [7]; 72 h, 25 μM, vehicle 4.5 log PFU/mL) [log PFU/mL]	Virus titer (SARS-CoV-2 [7]; 72 h, 50 μM, vehicle 4.5 log PFU/mL) [log PFU/mL]
CCN(CCO)CCCC(C)Nc1ccnc2cc(Cl)ccc12 (centres unmarked) [Hydroxychloroquine, reference compound]	1.71	> 100											
COc1cc(O)c(C(=O)[C@@H]2[C@H](CC=C(C)C)C(C)=CC[C@H]2c2ccccc2)c(O)c1 [Panduratin A]			810	14.7	significantly lower than that of Hydroxychloroquine	5.3	absolutely suppressed	3	reduced virus titers in a dose-dependent manner	43.5			
COc1cc(O)c2c(c1)O[C@H](c1ccccc1)CC2=O [Pinostrobin]		> 100									440	3	2.0
